pIC50: −log10 of the molar value.
What was measured:
Plasmodium falciparum [1] = test: Antimalarial activity against Plasmodium falciparum clinical isolate after 6 days by HRP2 enzyme-linked immunosorbent assay; format: functional, organism-based; details: 144 h
Plasmodium falciparum [2] = test: Ratio of IC50 for Plasmodium falciparum 3D7A after 6 days to IC50 for Plasmodium falciparum 3D7A after 3 days by HRP2 enzyme-linked immunosorbent assay; format: functional

Row | SMILES | pIC50 (Plasmodium falciparum [1]) | Ratio IC50 (Plasmodium falciparum [2])
1 | CCC[C@@H]1C[C@@H](C(=O)N[C@@H]([C@H]2O[C@H](SC)[C@H](O)[C@@H](O)[C@H]2O)[C@H](C)Cl)N(C)C1 [CLINDAMYCIN] | 7.94 | –
2 | CCCCCC1CN[C@@H](C(=O)N[C@H]([C@H]2O[C@H](SC)[C@H](O)[C@@H](O)[C@H]2O)[C@@H](C)Cl)C1 (stereo partly drawn) | – | > 10000
3 | C[C@H]1c2cccc(O)c2C(=O)C2=C(O)[C@]3(O)C(=O)C(C(N)=O)=C(O)[C@@H](N(C)C)[C@@H]3[C@@H](O)[C@@H]21 [DOXYCYCLINE] | 6.14 | –

From ChEMBL document CHEMBL1212749, “In vitro activity of mirincamycin (U24729A) against Plasmodium falciparum isolates from Gabon” (Antimicrob Agents Chemother, 2010)
